Assay results: patent US11890287B2, “Therapeutic compounds and compositions for treating social disorders and substance use disorders” (Kinoxis Therapeutics Pty Ltd, priority 2015, dated 2024)

Assays:
Test in all cases: PDSP orthosteric binding screen
Beta3 = target: T1, Beta3 (Homo sapiens, UniProt P13945)
T1 construct: Psychoactive Drug Screening Program (PDSP)
From the text: (§1) Comprehensive screening of affinity for the orthosteric binding sites for numerous receptors from the Psychoactive Drug Screening Program (PDSP) have failed as yet to identify a target, despite the powerful OT-like behavioural effects of the compound evident in vivo and the clear activation of brain OT systems evident from our Fos data.

D1 = target: T2, D1 (Homo sapiens, UniProt P21728)
T2 construct: Psychoactive Drug Screening Program (PDSP)
From the text: as §1

PBR = target: T3, PBR (Rattus norvegicus, UniProt P16257)
T3 construct: Psychoactive Drug Screening Program (PDSP)
From the text: as §1

Sigma 2 = system: Sigma 2
From the text: as §1

M1 = target: T4, M1 (Homo sapiens, UniProt P11229)
T4 construct: Psychoactive Drug Screening Program (PDSP)
From the text: as §1

Alpha2A = target: T5, Alpha2A (Homo sapiens, UniProt P08913)
T5 construct: Psychoactive Drug Screening Program (PDSP)
From the text: as §1

H2 = target: T6, H2 (Homo sapiens, UniProt P25021)
T6 construct: Psychoactive Drug Screening Program (PDSP)
T6 sequence (P25021 whole entry): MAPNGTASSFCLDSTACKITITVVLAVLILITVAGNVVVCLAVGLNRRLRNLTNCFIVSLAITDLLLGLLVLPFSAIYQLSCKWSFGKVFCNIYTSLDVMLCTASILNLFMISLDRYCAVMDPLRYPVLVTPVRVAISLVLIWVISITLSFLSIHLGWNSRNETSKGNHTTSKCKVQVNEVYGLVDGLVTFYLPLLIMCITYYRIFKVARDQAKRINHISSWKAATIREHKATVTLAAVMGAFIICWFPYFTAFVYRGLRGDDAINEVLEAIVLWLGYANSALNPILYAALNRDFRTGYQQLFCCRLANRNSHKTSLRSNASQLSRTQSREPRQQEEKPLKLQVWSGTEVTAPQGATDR
From the text: as §1

D4 = target: T7, D4 (Homo sapiens, UniProt P21917)
T7 construct: Psychoactive Drug Screening Program (PDSP)
From the text: as §1

5-ht5a = target: T8, 5-ht5a (Homo sapiens, UniProt P47898)
T8 construct: Psychoactive Drug Screening Program (PDSP)
From the text: as §1

DAT = target: T9, DAT (Homo sapiens, UniProt Q01959)
T9 construct: Psychoactive Drug Screening Program (PDSP)
T9 sequence (Q01959 whole entry, species assumed): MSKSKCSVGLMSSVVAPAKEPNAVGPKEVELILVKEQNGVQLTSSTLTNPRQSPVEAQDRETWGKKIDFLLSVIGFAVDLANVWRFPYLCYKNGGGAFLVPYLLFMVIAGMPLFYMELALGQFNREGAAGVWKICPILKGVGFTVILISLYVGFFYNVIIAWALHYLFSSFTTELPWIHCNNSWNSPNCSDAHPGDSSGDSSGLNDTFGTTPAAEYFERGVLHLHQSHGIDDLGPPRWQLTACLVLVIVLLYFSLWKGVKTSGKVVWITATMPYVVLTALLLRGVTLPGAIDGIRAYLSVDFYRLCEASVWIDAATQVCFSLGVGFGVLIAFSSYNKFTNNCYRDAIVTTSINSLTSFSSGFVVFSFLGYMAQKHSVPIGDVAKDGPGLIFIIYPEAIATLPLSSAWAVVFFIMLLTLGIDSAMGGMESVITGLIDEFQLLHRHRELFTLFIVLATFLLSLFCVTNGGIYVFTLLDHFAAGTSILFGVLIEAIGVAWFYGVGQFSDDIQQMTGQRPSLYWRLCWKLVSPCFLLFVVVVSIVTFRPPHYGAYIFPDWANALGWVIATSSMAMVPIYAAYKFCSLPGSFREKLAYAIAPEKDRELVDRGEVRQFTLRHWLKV
From the text: as §1

5-HT2A = target: T10, 5-HT2A (Homo sapiens, UniProt P28223)
T10 construct: Psychoactive Drug Screening Program (PDSP)
From the text: as §1

Beta1 = target: T11, Beta1 (Homo sapiens, UniProt P08588)
T11 construct: Psychoactive Drug Screening Program (PDSP)
From the text: as §1

D3 = target: T12, D3 (Homo sapiens, UniProt P35462)
T12 construct: Psychoactive Drug Screening Program (PDSP)
T12 sequence (P35462 whole entry): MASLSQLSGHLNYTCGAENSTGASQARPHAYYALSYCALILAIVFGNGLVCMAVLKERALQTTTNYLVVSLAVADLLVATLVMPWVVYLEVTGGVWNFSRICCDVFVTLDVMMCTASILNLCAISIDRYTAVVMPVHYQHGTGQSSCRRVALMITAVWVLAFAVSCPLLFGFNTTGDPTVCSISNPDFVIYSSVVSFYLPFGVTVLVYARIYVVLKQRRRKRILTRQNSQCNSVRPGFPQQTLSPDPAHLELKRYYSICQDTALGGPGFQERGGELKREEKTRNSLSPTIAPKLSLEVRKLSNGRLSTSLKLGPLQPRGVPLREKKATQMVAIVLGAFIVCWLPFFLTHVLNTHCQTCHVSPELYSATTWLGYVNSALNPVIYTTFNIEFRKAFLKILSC
From the text: as §1

DOR = target: T13, DOR (Homo sapiens, UniProt P41143)
T13 construct: Psychoactive Drug Screening Program (PDSP)
From the text: as §1

5-HT1D = target: T14, 5-HT1D (Homo sapiens, UniProt P28221)
T14 construct: Psychoactive Drug Screening Program (PDSP)
From the text: as §1

Alpha2C = target: T15, Alpha2C (Homo sapiens, UniProt P18825)
T15 construct: Psychoactive Drug Screening Program (PDSP)
T15 sequence (P18825 whole entry): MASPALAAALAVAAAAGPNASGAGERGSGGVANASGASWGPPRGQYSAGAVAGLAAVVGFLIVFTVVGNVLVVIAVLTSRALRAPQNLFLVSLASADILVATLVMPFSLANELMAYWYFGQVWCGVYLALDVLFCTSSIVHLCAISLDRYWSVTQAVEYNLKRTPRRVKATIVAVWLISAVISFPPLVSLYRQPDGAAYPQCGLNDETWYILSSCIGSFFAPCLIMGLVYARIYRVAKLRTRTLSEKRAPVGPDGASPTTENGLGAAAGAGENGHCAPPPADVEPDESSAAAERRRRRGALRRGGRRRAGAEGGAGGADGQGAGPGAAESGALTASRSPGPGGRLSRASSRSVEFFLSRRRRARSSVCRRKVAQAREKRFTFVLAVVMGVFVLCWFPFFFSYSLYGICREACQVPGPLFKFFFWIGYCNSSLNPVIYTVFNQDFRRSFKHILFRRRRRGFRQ
From the text: as §1

M3 = target: T16, M3 (Homo sapiens, UniProt P20309)
T16 construct: Psychoactive Drug Screening Program (PDSP)
T16 sequence (P20309 whole entry): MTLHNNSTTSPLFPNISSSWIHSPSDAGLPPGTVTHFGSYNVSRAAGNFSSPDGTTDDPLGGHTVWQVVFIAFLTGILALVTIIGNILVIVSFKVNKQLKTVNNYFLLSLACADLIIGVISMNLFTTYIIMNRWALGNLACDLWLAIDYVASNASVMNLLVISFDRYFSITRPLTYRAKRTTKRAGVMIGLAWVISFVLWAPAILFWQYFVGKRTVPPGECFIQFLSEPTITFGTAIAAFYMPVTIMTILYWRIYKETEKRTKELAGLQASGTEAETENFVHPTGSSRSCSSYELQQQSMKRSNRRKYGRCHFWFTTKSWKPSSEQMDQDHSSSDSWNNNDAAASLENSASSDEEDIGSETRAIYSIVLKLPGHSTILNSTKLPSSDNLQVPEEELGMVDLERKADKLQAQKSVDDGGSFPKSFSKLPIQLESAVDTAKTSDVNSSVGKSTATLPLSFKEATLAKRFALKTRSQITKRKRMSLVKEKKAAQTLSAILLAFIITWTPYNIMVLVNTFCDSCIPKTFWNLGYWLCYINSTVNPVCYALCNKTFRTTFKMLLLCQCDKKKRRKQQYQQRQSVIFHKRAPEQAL
From the text: as §1

Alpha1B = target: T17, Alpha1B (Homo sapiens, UniProt P35368)
T17 construct: Psychoactive Drug Screening Program (PDSP)
T17 sequence (P35368 whole entry): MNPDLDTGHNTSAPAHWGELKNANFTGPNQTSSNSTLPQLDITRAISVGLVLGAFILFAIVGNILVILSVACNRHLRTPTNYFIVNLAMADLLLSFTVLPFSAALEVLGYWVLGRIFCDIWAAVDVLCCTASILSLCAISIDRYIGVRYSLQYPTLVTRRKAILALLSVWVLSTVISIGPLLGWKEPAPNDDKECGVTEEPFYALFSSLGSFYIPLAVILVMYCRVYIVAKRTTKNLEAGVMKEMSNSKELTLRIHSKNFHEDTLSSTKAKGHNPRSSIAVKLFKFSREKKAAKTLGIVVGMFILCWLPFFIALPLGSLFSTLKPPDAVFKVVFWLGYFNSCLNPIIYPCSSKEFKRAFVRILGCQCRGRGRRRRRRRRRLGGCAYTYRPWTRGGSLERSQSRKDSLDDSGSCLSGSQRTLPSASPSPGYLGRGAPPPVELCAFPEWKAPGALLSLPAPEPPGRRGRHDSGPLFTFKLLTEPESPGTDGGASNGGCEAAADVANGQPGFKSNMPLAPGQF
From the text: as §1

Alpha2B = target: T18, Alpha2B (Homo sapiens, UniProt P18089)
T18 construct: Psychoactive Drug Screening Program (PDSP)
From the text: as §1

H1 = target: T19, H1 (Homo sapiens, UniProt P35367)
T19 construct: Psychoactive Drug Screening Program (PDSP)
T19 sequence (P35367 whole entry): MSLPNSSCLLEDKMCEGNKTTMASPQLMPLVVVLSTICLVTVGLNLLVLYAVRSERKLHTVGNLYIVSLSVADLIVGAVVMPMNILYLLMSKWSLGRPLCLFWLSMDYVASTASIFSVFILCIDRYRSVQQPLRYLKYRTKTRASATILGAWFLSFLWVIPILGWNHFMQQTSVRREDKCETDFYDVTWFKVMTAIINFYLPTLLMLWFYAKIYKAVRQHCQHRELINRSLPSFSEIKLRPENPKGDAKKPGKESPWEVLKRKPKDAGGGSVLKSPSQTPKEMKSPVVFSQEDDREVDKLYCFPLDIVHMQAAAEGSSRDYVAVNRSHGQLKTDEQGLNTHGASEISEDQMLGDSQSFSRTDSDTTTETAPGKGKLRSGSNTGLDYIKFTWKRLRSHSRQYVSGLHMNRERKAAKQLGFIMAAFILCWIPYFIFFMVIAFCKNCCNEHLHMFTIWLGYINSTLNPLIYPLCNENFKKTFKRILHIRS
From the text: as §1

5-ht1e = target: T20, 5-ht1e (Homo sapiens, UniProt P28566)
T20 construct: Psychoactive Drug Screening Program (PDSP)
T20 sequence (P28566 whole entry, species assumed): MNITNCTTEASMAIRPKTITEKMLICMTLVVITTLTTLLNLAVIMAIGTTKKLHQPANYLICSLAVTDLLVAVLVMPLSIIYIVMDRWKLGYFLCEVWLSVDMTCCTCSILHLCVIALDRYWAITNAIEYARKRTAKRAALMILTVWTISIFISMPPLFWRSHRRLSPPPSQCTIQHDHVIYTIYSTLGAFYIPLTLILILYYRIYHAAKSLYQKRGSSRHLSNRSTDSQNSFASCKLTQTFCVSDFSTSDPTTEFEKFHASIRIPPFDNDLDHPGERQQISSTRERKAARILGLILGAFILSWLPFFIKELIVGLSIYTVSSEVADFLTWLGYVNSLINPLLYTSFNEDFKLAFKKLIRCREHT
From the text: as §1

M5 = target: T21, M5 (Homo sapiens, UniProt P08912)
T21 construct: Psychoactive Drug Screening Program (PDSP)
From the text: as §1

5-HT7 = target: T22, 5-HT7 (Homo sapiens, UniProt P34969)
T22 construct: Psychoactive Drug Screening Program (PDSP)
T22 sequence (P34969 whole entry, species assumed): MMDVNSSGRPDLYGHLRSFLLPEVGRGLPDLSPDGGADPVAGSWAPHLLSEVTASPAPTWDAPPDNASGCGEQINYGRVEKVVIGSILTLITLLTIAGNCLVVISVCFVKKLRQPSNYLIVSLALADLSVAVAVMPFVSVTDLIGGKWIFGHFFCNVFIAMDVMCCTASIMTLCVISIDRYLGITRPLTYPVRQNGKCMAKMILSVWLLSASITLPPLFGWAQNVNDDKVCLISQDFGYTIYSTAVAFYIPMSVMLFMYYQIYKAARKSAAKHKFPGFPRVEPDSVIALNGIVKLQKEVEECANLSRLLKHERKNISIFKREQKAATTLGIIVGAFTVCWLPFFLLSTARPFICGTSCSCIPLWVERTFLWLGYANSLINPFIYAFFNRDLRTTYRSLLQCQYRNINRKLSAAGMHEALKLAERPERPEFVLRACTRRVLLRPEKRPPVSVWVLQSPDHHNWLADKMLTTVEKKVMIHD
From the text: as §1

5-HT1B = target: T23, 5-HT1B (Homo sapiens, UniProt P28222)
T23 construct: Psychoactive Drug Screening Program (PDSP)
From the text: as §1

5-HT1A = target: T24, 5-HT1A (Homo sapiens, UniProt P08908)
T24 construct: Psychoactive Drug Screening Program (PDSP)
From the text: as §1

Sigma 1 = system: Sigma 1
From the text: as §1

5-HT6 = target: T25, 5-HT6 (Homo sapiens, UniProt P50406)
T25 construct: Psychoactive Drug Screening Program (PDSP)
From the text: as §1

KOR = target: T26, KOR (Homo sapiens, UniProt P41145)
T26 construct: Psychoactive Drug Screening Program (PDSP)
From the text: as §1

NET = target: T27, NET (Homo sapiens, UniProt P23975)
T27 construct: Psychoactive Drug Screening Program (PDSP)
T27 sequence (P23975 whole entry): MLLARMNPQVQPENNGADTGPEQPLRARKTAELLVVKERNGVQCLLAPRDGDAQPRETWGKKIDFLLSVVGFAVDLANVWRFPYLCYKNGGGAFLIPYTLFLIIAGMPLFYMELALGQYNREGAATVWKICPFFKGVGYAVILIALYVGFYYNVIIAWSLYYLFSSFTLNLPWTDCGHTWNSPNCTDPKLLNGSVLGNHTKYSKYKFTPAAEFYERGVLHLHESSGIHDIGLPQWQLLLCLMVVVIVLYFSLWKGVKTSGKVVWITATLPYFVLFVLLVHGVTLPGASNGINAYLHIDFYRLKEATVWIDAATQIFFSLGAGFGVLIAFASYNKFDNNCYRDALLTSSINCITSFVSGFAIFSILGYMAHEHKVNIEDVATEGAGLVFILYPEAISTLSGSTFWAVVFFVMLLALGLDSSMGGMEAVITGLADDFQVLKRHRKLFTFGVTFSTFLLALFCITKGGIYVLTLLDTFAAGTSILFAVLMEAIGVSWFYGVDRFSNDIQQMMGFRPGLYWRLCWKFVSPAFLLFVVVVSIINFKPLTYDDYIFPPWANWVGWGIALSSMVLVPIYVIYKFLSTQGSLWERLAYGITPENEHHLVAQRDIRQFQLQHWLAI
From the text: as §1

D2 = target: T28, D2 (Homo sapiens, UniProt P14416)
T28 construct: Psychoactive Drug Screening Program (PDSP)
From the text: as §1

Cl.Cn1ncc2c1Nc1ccccc1NC2 [SOC-1]
no notable affinity: affinity for Beta3 (Beta3) | affinity for D1 (D1) | affinity for PBR (PBR) | affinity for Sigma 2 (Sigma 2) | affinity for M1 (M1) | affinity for Alpha2A (Alpha2A) | affinity for H2 (H2) | affinity for D4 (D4) | affinity for 5-ht5a (5-ht5a) | affinity for DAT (DAT) | affinity for 5-HT2A (5-HT2A) | affinity for Beta1 (Beta1) | affinity for D3 (D3) | affinity for DOR (DOR) | affinity for 5-HT1D (5-HT1D) | affinity for Alpha2C (Alpha2C) | affinity for M3 (M3) | affinity for Alpha1B (Alpha1B) | affinity for Alpha2B (Alpha2B) | affinity for H1 (H1) | affinity for 5-ht1e (5-ht1e) | affinity for M5 (M5) | affinity for 5-HT7 (5-HT7) | affinity for 5-HT1B (5-HT1B) | affinity for 5-HT1A (5-HT1A) | affinity for Sigma 1 (Sigma 1) | affinity for 5-HT6 (5-HT6) | affinity for KOR (KOR) | affinity for NET (NET) | affinity for D2 (D2)
